The values that follow come from publication PMC11375702, “Early Preclinical Studies of Ergosterol Peroxide and Biological Evaluation of Its Derivatives” (ACS Omega, 2024).

Molecules are shown by their SMILES.

Series [1] in a line: Plasma protein binding, rapid equilibrium dialysis (mouse). The class given is in vitro ADME. The settings on record: read-out: plasma binding (mouse) protein binding (converted). Here is the method: This assay determines the plasma protein binding of a drug or compound and free drug concentration in plasma using rapid equilibrium dialysis. We use the Single-Use RED (rapid equilibrium dialysis, Thermo Scientific) devices to allow the aqueous component of plasma containing the free drug/compound through a dialysis membrane (MWCO ∼ 8000). Sample quantification is determined using a Waters ACQUITY-SOQ UPLC-MS-ELDS-UV system.
(Equilibrium dialysis compares concentrations on both sides of a semipermeable membrane.)

Another series addresses T1, CYP2C9 (Homo sapiens, UniProt P11712).
T1 construct: from tissue; host or cells: pooled human liver microsomes
Nature of the series: Microsomal CYP inhibition assay, CYP2C9. The class given is in vitro ADME. As for the experimental part: (§1) To assess potential cardiotoxicity, we performed the human ether-go-go-related gene (hERG) inhibition assay. […] Briefly, EP was tested at six concentrations (cumulative concentration–response). […] For hepatotoxicity determination, we performed the microsomal CYP inhibition assay. Briefly, EP was incubated at seven increasing concentrations with pooled human liver microsomes. […] The supernatants were analyzed by LC-MS/MS.

A further series addresses T2, CYP2C8 (Homo sapiens, UniProt P10632).
T2 sequence (P10632 1-490): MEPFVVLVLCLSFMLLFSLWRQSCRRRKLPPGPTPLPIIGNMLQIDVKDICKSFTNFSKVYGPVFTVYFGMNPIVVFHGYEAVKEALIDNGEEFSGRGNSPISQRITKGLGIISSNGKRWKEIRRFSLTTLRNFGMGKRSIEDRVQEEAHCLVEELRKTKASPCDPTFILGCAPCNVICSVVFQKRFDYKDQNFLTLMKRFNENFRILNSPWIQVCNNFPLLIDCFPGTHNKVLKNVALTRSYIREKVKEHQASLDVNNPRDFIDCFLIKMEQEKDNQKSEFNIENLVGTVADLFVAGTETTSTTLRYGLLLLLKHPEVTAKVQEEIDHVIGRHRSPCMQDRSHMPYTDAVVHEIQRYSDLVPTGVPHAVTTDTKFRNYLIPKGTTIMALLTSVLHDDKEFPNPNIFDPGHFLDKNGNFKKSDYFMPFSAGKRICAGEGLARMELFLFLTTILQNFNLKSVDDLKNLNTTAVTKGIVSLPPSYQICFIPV
Put plainly: Microsomal CYP inhibition assay, CYP2C8. The format is in vitro ADME. The settings on record: pooled human liver microsomes, probe amodiaquine. As for the experimental part:
as §1
(In general: Liver microsomes are vesicles of endoplasmic reticulum, rich in cytochrome P450 enzymes.)

Another series concerns the target T3, CYP2B6 (Homo sapiens, UniProt P20813).
T3 construct: from tissue; host or cells: pooled human liver microsomes
T3 sequence (P20813 1-491): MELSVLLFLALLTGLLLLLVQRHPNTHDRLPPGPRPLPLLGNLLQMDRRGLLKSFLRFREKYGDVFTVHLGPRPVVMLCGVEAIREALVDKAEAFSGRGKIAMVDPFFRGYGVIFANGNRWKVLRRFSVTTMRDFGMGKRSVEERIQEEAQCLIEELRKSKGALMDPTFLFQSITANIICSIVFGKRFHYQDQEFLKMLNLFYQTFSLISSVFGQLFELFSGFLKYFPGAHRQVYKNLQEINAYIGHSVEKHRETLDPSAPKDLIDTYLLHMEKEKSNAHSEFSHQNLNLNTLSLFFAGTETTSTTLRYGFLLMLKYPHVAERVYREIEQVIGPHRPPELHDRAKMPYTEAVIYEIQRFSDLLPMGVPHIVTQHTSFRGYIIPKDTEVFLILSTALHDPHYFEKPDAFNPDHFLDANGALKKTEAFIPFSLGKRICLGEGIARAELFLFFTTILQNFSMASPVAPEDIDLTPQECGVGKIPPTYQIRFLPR
Put plainly: Microsomal CYP inhibition assay, CYP2B6. The class given is in vitro ADME. The following applies: pooled human liver microsomes, probe bupropion. As for the experimental part: as §1

Series [2] has as its system MDA-MB-231-GFP mammary fat pad tumors. Put plainly: In vivo efficacy, MDA-MB-231-GFP mammary fat pad tumors. Further details: species or system mouse. The following applies: 100 mg/kg BW i.p. 3 times per week. Here is the method:
Finally, to test the effect of EP on breast cancer progression in vivo, we established mammary fat pad tumors from GFP-tagged TNBC MDA-MB-231 cancer cells as we have previously described.[47] Mice were injected with TNBC cells diluted in Matrigel in their fourth mammary fat pad, and when tumors were palpable, the mice were injected via intraperitoneal (i.p.) 3 times per week with vehicle (10% ethanol) or 100 mg/kg BW of EP. […] The progression of the tumor was quantified by fluorescence image analysis obtained on a weekly basis.
Female (3-week-old) severe combined immunodeficient (SCID) Hairless Outbred (SHO) mice (Charles River Laboratories, Wilmington, MA) were segregated into two groups (n = 3 mice/group) and housed under specific pathogen-free conditions. The mice received an autoclaved AIN 76-A phytoestrogen-free diet (Tek Global, Harlan Teklad, Madison, WI) and water ad libitum. Cell inoculations were performed under isoflurane inhalation as we previously described[47] to produce orthotopic tumors as described in the provided reference.[54] […] GFP-tagged cells were monitored weekly for the duration of the study using an iBox Explorer^2 (UVP, CA) animal imaging system. […] Tumor fluorescence intensities were analyzed using ImageJ software (National Institutes of Health, Bethesda, MD). […]

Series [3] can be described thus: Plasma stability assay (mouse).
Procedure: Briefly, pooled blood from 3 animals for experiment (male Balb/c 6–8w from the division of laboratory animal medicine in-house breeding colony) was collected, and the heparinized plasma was prepared. Plasma and test compounds were added to individual wells of a 96-well microtiter plate. Compounds were incubated at 37 °C for the provided time points. All tests were performed in triplicates. The test compound was incubated with plasma at six different time points. The reaction was terminated by methanol containing an internal standard. After centrifugation, the concentration of the test compound in the supernatant was quantified by LC-MS/MS.
Plasma stability assay: Briefly, pooled blood from 3 animals for experiment (male Balb/c 6-8w
from the division of laboratory animal medicine in-house breeding colony) was collected, and
the heparinized plasma was prepared. Plasma and test compounds were added to the individual
wells of a 96-well microtiter plate. Compounds were incubated at 37°C for the provided time
points. All tests were performed in triplicates. Then, the test compound was incubated with
plasma at six different time points. The reaction was terminated by the addition of methanol
containing an internal standard. After centrifugation, the concentration of the test compound in
the supernatant was quantified by LC-MS/MS. The percentage of test compound remaining at
compounds are known to be metabolized by plasma esterases,1 and were also incubated with
each batch of test compound.
A standard protocol and MS method was used for the plasma stability experiment. The extraction
procedure for plasma/tissue samples and the spiked plasma/tissue calibration standards were
identical: A 25 µL of study sample or spiked plasma/tissue calibration standard was added to
individual pre-labeled micro-centrifuge tubes followed by 100 µL of internal standard prepared
in Acetonitrile (Albendazole, 500 ng/mL) was added except for blank, where 100 µL of
Acetonitrile was added. Samples were vortexed for 5 minutes. Samples were centrifuged for 5
minutes at a speed of 4000 rpm at 4°C. Following centrifugation, 100 µL of clear supernatant
was transferred in 96 well plates and analyzed using LC-MS/MS mode. The LC system
comprises of a binary pump that can mix two mobile phases: A = Water+0.1% formic acid; B =
acetonitrile +0.1%formic acid. The system was operated in gradient mode using a 6 minute
min, 10-90% A to B in 5.5-6 min, and then hold at this gradient, using a Phenomenex Luna, 150
X 4.6 mm, 5 µm column. Source Parameter: positive, Ion Spray Voltage 5500, Temperature
550C, interface heater on.
The nature of series [4]: Plasma stability assay (human).

T1 sequence (P11712 whole entry): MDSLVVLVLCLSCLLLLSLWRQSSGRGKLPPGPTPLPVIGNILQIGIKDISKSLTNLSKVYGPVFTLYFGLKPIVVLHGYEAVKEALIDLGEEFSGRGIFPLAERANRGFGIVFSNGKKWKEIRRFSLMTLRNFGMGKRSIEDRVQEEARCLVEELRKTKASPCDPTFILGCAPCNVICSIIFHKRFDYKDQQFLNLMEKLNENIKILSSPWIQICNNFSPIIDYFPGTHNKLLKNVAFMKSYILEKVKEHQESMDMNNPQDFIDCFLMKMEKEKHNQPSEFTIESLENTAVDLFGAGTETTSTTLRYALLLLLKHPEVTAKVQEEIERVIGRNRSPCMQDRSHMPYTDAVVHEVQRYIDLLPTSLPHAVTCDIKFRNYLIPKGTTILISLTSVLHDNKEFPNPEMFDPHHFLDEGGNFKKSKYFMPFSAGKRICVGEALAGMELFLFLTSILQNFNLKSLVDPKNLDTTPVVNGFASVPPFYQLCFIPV

As for `CC(C)[C@@H](C)/C=C/[C@@H](C)[C@H]1CC[C@@H]2[C@]1(C)CC[C@H]1[C@]23C=C[C@]2(C[C@@H](O)CC[C@]12C)OO3` [Compound 2, Ergosterol peroxide], in series [1], the fraction unbound was 0.14. For the same molecule, the 50% inhibitory concentration (IC50) against CYP2C9 is more than 25 µM; on CYP2C8 it was 9.9 µM; at CYP2B6, more than 25 µM. The tumor growth entry in series [2] (by week 3, P < 0.05) was “decreases tumor growth”. The molecule further gave a tumor size reduction in series [2] (end of study, vs vehicle) of approximately 17%. For the same molecule, the half-life is more than 48 h in series [3] (male, Balb/c, mouse, plasma) and more than 48 h in series [4]. In series [3] (species not specified), this molecule yielded a plasma stability of more than 48 h.

As a reminder, the IC50 is the concentration that inhibits the measured activity by half. Lower therefore signals greater potency. As a reminder, the half-life is the time in which the quantity being followed falls by half. Higher therefore signals slow decline.
